Marks after values point to notes of the source that are not given here.
Key:
[1] = test system: mice; assay: Toxic effects of CP under in-vivo conditions; settings: up to a dose of 2.4 mmol CP/kg of body weight
Method: (§1) The mice were pre-treated using 1.2 mmol CP/kg, and 12 hours later they were treated with the control solution or 600 mg of paracetamol/kg of body weight i.p. Hepatic tissue and blood were extracted after another 3 hours, and the indicator substances were measured.

[2] = test system: mice; assay: Paracetamol liver damage and pre-treatment with CP: indicator substances in hepatic tissue and blood; type: in vivo; settings: for Cysteine / Cystine / Glycogen / Non-protein SH / Oxygen radicals / Protein SH / Total SH / AlAT / AspAT: CP 1.2 mmol/kg pre-treatment, 12 h later paracetamol 600 mg/kg i.p. or control solution; for Cysteine / Cystine / Glycogen / Non-protein SH / Oxygen radicals / Protein SH / Total SH: tissue after another 3 h; for AlAT / AspAT: blood serum, blood after another 3 h; for concentration of oxygen radicals / concentration of sulfhydryl groups / free cysteines in the hepatic tissue / glycogen in the hepatic tissue / enzymes in the blood serum released from the liver (AlAT, AspT): paracetamol 600 mg/kg single dose, CP pre-treatment 1.2 mmol/kg; for enzymes in the blood serum released from the liver (AlAT, AspT): within 3 hours
Method: as §1

[3] = test system: Hep G2 cells; assay: Cytotoxicity of paracetamol and protective action of CP on permanent hepatic cell line; type: cell-based
Method: The cells were kept for 10 days in a medium that contained paracetamol (1 mM). […] The concentrations of the indicator substances were measured at the end of the period of exposure (Table 3). […] It is therefore recommended to choose higher AA concentrations for later experiments.

[4] = test system: mice; assay: Time-dosage dependency: GSH in hepatic tissue after CP injection; type: in vivo; settings: for GSH % of control / GSH: mice
[5] = Hep G2 cells, 10 days, AA 1 mM, simultaneous CP 2 mM
[6] = CP 1.2 mmol/kg, 8 h after injection
[7] = CP 2.4 mmol/kg, 4 h after injection
[8] = Hep G2 cells, 10 days, AA 1 mM, CP 2 mM

SMILES	Cysteine [2]	Cystine [2]	Glycogen [2]	Non-protein SH [2]	Oxygen radicals [2]	Protein SH [2]	Total SH [2]	AlAT [2] [units/l]	AspAT [2] [units/l]	concentration of oxygen radicals [2]	concentration of sulfhydryl groups [2]	free cysteines in the hepatic tissue [2]	glycogen in the hepatic tissue [2]	enzymes in the blood serum released from the liver (AlAT, AspT) [2]	L-cysteine and cystine concentrations [3, 5]	free radicals [3, 5]	other results
CC1(C(=O)O)NC(C(=O)O)CS1 (centres unmarked) [CP, 2-methyl-thiazolidine-2,4-dicarboxylic acid]	0.240^a ± μmol/g wet weight of the liver	0.020^a ± μmol/g wet weight of the liver	12.59 ± 0.21 mg/g wet weight of the liver	3.81^a ± μmol/g wet weight of the liver	0.120^a ± μmol/g wet weight of the liver	13.27^a ± μmol/g wet weight of the liver	17.08^a ± μmol/g wet weight of the liver	20	199	significantly reduced	reduced the decrease	significantly increased	significantly increased	suppressed the increase	more than compensated	prevented	toxic effects [1]: no toxic effects; effect against high concentrations of paracetamol in the hepatic cell model ([3]; Hep G2 cell culture): protective effect; increase of glutathione concentration in the hepatic tissue ([4]; after 12 hours, 1.2 or 2.4 mmol/kg of body weight): could still be detected; GSH % of control ([4]; CP 1.2 mmol/kg, 1 h after injection): 117.5 % of control; GSH % of control ([4]; CP 1.2 mmol/kg, 4 h after injection): 87.2 % of control; GSH [4, 6]: 6.48 ± 0.67 μmol/g of wet weight; GSH % of control [4, 6]: 108.5 % of control; GSH % of control ([4]; CP 1.2 mmol/kg, 12 h after injection): 122.0 % of control; GSH % of control ([4]; CP 2.4 mmol/kg, 1 h after injection): 127.6 % of control; GSH [4, 7]: 5.76 ± 0.42 μmol/g of wet weight; GSH % of control [4, 7]: 90.3 % of control; GSH % of control ([4]; CP 2.4 mmol/kg, 8 h after injection): 112.0 % of control; GSH % of control ([4]; CP 2.4 mmol/kg, 12 h after injection): 154.5 % of control; glutathione concentration in the hepatic tissue ([4]; within one hour post application of 1.2 or 2.4 mmol/kg of body weight): rose considerably
CC(=O)Nc1ccc(O)cc1 [Paracetamol, paracetamol]	0.062^a ± μmol/g wet weight of the liver	0.025^a ± μmol/g wet weight of the liver	8.45^a ± mg/g wet weight of the liver	0.22^a ± μmol/g wet weight of the liver	0.317^a ± μmol/g wet weight of the liver	12.34 ± 0.20 μmol/g wet weight of the liver	12.56^a ± μmol/g wet weight of the liver	682	855	increased	dropped dramatically	dropped dramatically	dropped dramatically	enormous increase	dropped slightly	increase	concentrations of the other indicator substances ([3]; Hep G2 cells, 10 days, AA 1 mM): remained unchanged; Cysteine [3, 8]: 3.68 nmol/mg Protein; Cystine [3, 8]: 0.130 nmol/mg Protein; GSH [3, 8]: 14.9 nmol/mg Protein; Glutamine synthetase [3, 8]: 0.41 units/mg protein; LDH [3, 8]: 1.88 units/mg protein; NPSH [3, 8]: 18.90 nmol/mg Protein; free radicals [3, 8]: 0.210 nmol/mg Protein; number of cells [3, 8]: 6 × 10^8 cells; vital cells [3, 8]: 94% vital

From patent US6441011B1, “Combined preparation consisting of 2-methylthiazolidine-2,4-dicarboxylic acid and paracetamol” (priority 1997, dated 2002)
